# Laboratory results as given in patent publication US20140158116A1, “INHIBITING TRPA1 FOR THE TREATMENT OF ASTHMA” (Cubist Pharmaceuticals, Inc., priority 2012, published 2014).
# What was measured:
# Type in all cases: cell-based
# hTRPV3 = target: T1, hTRPV3 (Homo sapiens, UniProt Q8NET8); assay: Patch clamp selectivity, hTRPV3
# T1 sequence (Q8NET8 1-790): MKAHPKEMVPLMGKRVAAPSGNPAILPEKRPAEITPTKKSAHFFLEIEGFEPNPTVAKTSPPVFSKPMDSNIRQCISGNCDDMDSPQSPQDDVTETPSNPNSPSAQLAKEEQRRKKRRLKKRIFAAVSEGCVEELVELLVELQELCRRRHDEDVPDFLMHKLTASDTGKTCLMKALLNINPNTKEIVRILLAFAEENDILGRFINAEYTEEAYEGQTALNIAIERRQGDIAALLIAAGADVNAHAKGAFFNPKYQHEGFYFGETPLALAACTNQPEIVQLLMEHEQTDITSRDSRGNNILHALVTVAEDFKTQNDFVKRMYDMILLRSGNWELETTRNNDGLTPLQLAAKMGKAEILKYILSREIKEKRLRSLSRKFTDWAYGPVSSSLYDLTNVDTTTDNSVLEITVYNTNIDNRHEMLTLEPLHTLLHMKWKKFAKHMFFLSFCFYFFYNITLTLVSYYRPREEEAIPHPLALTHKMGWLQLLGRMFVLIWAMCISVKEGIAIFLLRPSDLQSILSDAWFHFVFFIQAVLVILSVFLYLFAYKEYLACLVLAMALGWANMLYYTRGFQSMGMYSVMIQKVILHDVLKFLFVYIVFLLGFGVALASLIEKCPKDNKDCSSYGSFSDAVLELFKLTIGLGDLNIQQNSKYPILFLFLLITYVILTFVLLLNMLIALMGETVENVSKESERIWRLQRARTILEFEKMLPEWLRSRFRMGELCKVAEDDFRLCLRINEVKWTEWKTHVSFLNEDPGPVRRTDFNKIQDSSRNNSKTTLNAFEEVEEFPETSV
# Protocol: (§1) Data for TRPA1 inhibition and the selectivity of TRPA1 inhibition was obtained by this method for the compound of Formula (Ia) and included in Table 1 and Table 2. All currents were recorded in whole-cell configuration using EPC-9 and EPC-10 amplifiers and Patchmaster software (HEKA). […] The standard pipette solution consisted of 140 mM CsAsp, 10 mM EGTA, 10 mM HEPES, 2.27 mM MgCl2, 1.91 mM CaCl2, 4 mM MgATP, and 0.1-0.3 mM Na2GTP, with pH adjusted to 7.2 with CsOH. In addition, a solution containing 145 mM CsCl, 10 mM HEPES, 10 mM EGTA and 1 mM MgCl2 (pH 7.2 adjusted with CsOH) can be used. The standard bath solution contained 150 mM NaCl, 10 mM HEPES, 10 mM glucose, 4.5 mM KCl, 1 mM EGTA, 3 mM MgCl2, with pH adjusted to 7.4 with NaOH. In some instances, 2 mM CaCl2 was added in place of EGTA and the concentration of MgCl2 was reduced to 1 mM.
# (§2) Data were collected either by continuous recordings at −60 mV or by applying voltage ramps from a holding potential of 0 mV every 4 s. […] Inward and outward currents were analyzed from the ramps at −80 and 80 mV, respectively. […]
# (§3) Solutions were switched using a gravity-fed continuous focal perfusion system. […] Temperatures were confirmed using a thermistor (Warner Instruments, TA-29), with temperatures at the recorded cell estimated to be within +/−2° C. of those reported. […]
# hTRPV4 = hTRPV4 (Homo sapiens, UniProt Q9HBA0); assay: Patch clamp selectivity, hTRPV4 block
# Chain of hTRPV4 (Q9HBA0 whole entry): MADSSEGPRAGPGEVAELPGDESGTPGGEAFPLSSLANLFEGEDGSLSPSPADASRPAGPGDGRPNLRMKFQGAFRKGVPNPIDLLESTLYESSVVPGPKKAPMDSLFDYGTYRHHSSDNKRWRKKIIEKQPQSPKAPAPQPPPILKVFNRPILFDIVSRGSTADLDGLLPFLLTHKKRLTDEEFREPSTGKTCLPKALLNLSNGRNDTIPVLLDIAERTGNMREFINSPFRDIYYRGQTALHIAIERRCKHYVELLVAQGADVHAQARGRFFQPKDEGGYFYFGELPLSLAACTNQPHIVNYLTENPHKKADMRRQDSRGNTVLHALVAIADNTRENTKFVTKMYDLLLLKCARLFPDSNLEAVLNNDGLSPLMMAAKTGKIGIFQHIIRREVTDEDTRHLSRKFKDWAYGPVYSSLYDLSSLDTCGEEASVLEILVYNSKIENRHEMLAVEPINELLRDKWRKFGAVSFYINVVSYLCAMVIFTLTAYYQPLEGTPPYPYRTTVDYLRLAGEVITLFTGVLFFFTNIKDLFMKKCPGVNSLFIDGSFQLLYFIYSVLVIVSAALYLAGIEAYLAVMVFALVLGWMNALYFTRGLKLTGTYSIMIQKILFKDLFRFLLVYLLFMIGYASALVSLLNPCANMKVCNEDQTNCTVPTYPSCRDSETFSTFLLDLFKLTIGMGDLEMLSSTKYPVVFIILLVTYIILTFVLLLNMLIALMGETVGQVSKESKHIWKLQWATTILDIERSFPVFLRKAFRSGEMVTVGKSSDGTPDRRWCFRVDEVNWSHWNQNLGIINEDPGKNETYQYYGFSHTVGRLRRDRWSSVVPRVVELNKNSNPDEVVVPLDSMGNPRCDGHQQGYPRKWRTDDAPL
# Protocol: as §1, §2, §3
# hERG = hERG (Homo sapiens, UniProt Q12809); assay: Patch clamp selectivity, hERG
# Chain of hERG (Q12809 whole entry): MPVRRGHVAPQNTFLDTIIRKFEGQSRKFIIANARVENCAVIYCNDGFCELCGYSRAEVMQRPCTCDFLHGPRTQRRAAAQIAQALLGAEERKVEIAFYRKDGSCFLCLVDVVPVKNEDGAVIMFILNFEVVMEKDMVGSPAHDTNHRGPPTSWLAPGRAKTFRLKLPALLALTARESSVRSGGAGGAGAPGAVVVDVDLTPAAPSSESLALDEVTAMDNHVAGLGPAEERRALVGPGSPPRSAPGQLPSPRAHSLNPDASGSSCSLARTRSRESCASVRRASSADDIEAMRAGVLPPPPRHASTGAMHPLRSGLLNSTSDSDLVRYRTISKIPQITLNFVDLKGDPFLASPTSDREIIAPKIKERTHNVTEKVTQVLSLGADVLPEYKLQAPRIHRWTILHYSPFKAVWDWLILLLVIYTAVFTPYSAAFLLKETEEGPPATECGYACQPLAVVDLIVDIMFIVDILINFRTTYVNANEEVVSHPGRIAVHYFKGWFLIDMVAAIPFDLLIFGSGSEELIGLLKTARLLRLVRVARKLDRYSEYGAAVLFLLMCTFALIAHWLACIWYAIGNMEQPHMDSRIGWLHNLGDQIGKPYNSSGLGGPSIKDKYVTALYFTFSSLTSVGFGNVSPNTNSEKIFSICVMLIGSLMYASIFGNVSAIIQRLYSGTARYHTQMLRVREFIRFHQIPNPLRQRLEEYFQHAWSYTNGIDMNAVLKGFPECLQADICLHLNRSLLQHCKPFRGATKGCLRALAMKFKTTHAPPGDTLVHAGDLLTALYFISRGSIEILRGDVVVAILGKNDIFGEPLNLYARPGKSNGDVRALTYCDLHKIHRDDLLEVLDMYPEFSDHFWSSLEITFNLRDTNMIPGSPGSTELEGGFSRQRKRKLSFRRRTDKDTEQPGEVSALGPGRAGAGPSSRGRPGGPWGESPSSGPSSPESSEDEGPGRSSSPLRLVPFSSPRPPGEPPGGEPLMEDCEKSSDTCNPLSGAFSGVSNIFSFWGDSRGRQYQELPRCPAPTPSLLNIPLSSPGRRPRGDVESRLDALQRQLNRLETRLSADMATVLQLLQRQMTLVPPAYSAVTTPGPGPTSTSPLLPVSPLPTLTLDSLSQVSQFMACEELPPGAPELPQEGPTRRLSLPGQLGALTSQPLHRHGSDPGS
# Protocol: as §1, §2, §3
smiles,measurement,setting,value
C[C@H]1CCCN1c1ncc(-c2cccc(NC(=O)Cn3cnc4c3c(=O)n(C)c(=O)n4C)n2)cn1 [Formula (Ia)],Fold Selectivity Compared to TRPA1,hTRPV3,>300 fold
same,IC50,"hTRPV3; 30 micromolar 2-APB, Inward (−80 mV)",> 32 µM
same,Fold Selectivity Compared to TRPA1,hTRPV4,~170 fold
same,IC50,"hTRPV4; 2 micromolar 4α-PDD, Inward (−80 mV)",16 µM
same,IC50,"hERG; Voltage, Tail current (−40 mV)",> 10 µM
same,selectivity ratio,"hERG; human, pH 7.4, read-out: Fold Selectivity Compared to TRPA1",> 100
